Key:
Assay type in all cases: in vivo
[1] = tested on: C. elegans; test: Egg hatching / fecundity of C. elegans continuously exposed to PDE inhibitors; settings: continuous exposure at concentrations maximally reducing motility; juveniles counted on Day 5; FIG. 6; experiment performed once
Description: The number of newly hatched juveniles on Day 5 was counted and normalized to the reproductive success of the control condition (no inhibitor). This experiment was performed once.
To assess disruption of activities such as developmental progression leading to egg hatching in nematodes, C. elegans eggs are exposed to PDE inhibitors. The nematode eggs are exposed to a range of concentrations of family-specific PDE inhibitors, and inhibitors that prevent egg hatching are identified.
The number of hatched larvae in the treated group was compared to a control (untreated) group and the results are evaluated as a function of time up to 3 days after exposure to the PDE inhibitor.
The ability of these various PDE inhibitors to reduce the fecundity of C. elegans was also examined.

[2] = tested on: C. elegans; test: Motility of dauer state C. elegans exposed to PDE inhibitors; settings: among several PDE inhibitors tested
Description: (§1) The dauer state is morphologically similar to the infective states in juvenile phytoparasitic nematodes.
For this study, worms were contacted with drugs and scored for motility at various time points after the drug treatment to determine how quick the motility defect occurred. Nematodes were scored at 0, 1, 2, 4, 8, and 24 hours after addition of the treatment. Concentrations were 4.9 μM cilostazol, 2.5 μM Rolipram, and 6.6 μM papaverine. […] The time is shown in hours after contact was initiated and the effect was determined by assessing the fraction of contacted works that were motile, relative to control worm motility (i.e., worms not contacted with the tested drug). Cilostazol, rolipram and papaverine were tested. […] The time is shown in hours after contact and the effect was determined by assessing the fraction of contacted works that were motile, relative to control worm motility (controls were worms not contacted with tested drug).

[3] = tested on: C. elegans; test: Recovery of motility after contact with PDE inhibitor ceased; settings: 24 hours exposure, evaluated 24 hours after inhibitor removed
Description: Motility is shown relative to the control condition (i.e., motility of worms not contacted with the test drug). The black bars represent the fraction of motile worms after 24 hours of exposure to the PDE inhibitor. The grey bars represent the fraction of motile worms 24 hours after the exposure to the inhibitor ceased. The experiment was repeated three times and the data points represent the mean plus and minus the standard deviation.
as §1
For the study, nematodes were exposed for 24 hours with the PDE inhibitor (at the concentration indicated in FIG. 15) and then plated out and evaluated for normal motility as described elsewhere in the Examples. […] Motility is shown relative to control motility in worms not contacted with the test drug.

## CC(C)Cn1c(=O)n(C)c(=O)c2[nH]cnc21 [IBMX, 3-isobutyl-1-methylxanthine]
[1]
  effect on egg hatching (number of newly hatched juveniles relative to control): most effective in preventing egg hatching

## Cn1cc(-c2ccncc2)c(-c2ccc(OCc3ccc4ccccc4n3)cc2)n1 [MP10]
[2]
  effectiveness in reducing motility: most effective in reducing motility
[3]
  reversibility of drug effects on motility: reversed after 24 hours

## O=C1CCc2cc(OCCCCc3nnnn3C3CCCCC3)ccc2N1 [cilostazol]
[1]
  effect on egg hatching (number of newly hatched juveniles relative to control): most effective in preventing egg hatching
[2]
  effectiveness in reducing motility: most effective in reducing motility
[3]
  reversibility of drug effects on motility: reversed after 24 hours

## OCCN(CCO)c1nc(N2CCCCC2)c2nc(N(CCO)CCO)nc(N3CCCCC3)c2n1 [dipyridamole]
[1]
  effect on egg hatching (number of newly hatched juveniles relative to control): enhanced egg hatching

## Cc1[nH]c(=O)c(C#N)cc1-c1ccncc1 [milrinone]
[2]
  effectiveness in reducing motility: most effective in reducing motility
[3]
  reversibility of drug effects on motility: reversed after 24 hours

## COc1ccc(Cc2nccc3cc(OC)c(OC)cc23)cc1OC [papaverine]
[2]
  effectiveness in reducing motility: most effective in reducing motility
[3]
  reversibility of drug effects on motility: reversed after 24 hours

## COc1ccc(C2CNC(=O)C2)cc1OC1CCCC1 (centres unmarked) [rolipram]
[2]
  effectiveness in reducing motility: most effective in reducing motility
[3]
  reversibility of drug effects on motility: reversed after 24 hours

## CCOC(=O)C1=C[C@]2(CC)CCCN3CCc4c(n1c1ccccc41)[C@@H]32 [vinpocetine]
[1]
  effect on egg hatching (number of newly hatched juveniles relative to control): most effective in preventing egg hatching

Reference: patent publication US11589588B2, “Methods of identification and use of nematicide compounds” (UNIVERSITY OF NEW HAMPSHIRE, priority 2013, dated 2023)
